row,SMILES,melting point [°C]
1,Cc1nc(NC(=O)c2cnn3c(C(F)F)cc(-c4ccc(C(F)(F)F)cc4)nc23)sc1S(=O)(=O)N(CCO)CCO,191
2,CC(C)(O)c1cccn2c(-c3ccnc(NC4CCC(C(=O)N5CCC(O)CC5)CC4)n3)cnc12 (configuration not stated),188 to 190
3,COc1ccc(CN(C)c2ncnc3c(N4CCOCC4)nc(N4CCC(N(C)C)CC4)nc23)cc1,109 to 110
4,COc1cc(C2C3=C(COC3=O)Nc3ccc4ncsc4c32)cc(OC)c1OC (configuration not stated),309 to 310
5,COc1ccccc1N1CCN(CCCn2c(=O)[nH]c3ccsc3c2=O)CC1,78 to 84
6,O=C(Nc1ccccc1F)c1c[nH]c2c1C(=O)CCC2,238 to 240
7,O=C1C(c2cccn2-c2ccccc2)=CC(=O)c2ncccc21,132 to 134
8,Cc1ccc(-n2nc(C(F)F)cc2-c2ccc(S(C)(=O)=O)cc2)cc1F,161 to 162
9,Cc1cc(-c2cc(O)c(SCc3ccccc3)c(=O)o2)cc(C)c1O[Si](C)(C)C(C)(C)C,137 to 139
10,COc1ccc(C(=NOC(C)=O)c2cccc(F)c2F)c(O)c1Cl,136 to 139
11,COCCNC(=O)c1ccc(SC)c(N)c1,66 to 68
12,NC(=S)c1nccc(F)c1Cn1ccnc1,154 to 156
13,COc1cc2c(cc1C(F)(F)F)N(C(=O)Nc1csc(-c3cnccn3)n1)CC2,> 240
14,Cc1c(C(=O)Nc2ccc(N3CCN(C4CCOCC4)CC3)c(C#N)c2)cnn1-c1ccc(F)cc1,240
15,COC(=O)C(C)(C)OCc1cc2cc(C(F)(F)F)ccc2n1S(=O)(=O)c1cc(C)cc(C)c1,132 to 134
16,O=S(c1ccccc1)C1COc2ccc(OCc3ccc4ccccc4n3)cc2C1O (configuration not stated),174 to 176
17,N=C(Nc1ccc(Cl)cc1)NC1CCCCC1,187 to 190
18,C[C@@H](N1CCN(C(=S)Nc2ccccc2)CC1)[C@](O)(Cn1cncn1)c1ccc(F)cc1F,106 to 108
19,FC(F)(F)c1nnc2c(Cl)nc3ccc(Cl)cc3n12,133 to 135
20,CC(=O)c1ccc(S(=O)(=O)Nc2cccnc2)cc1,182 to 183

# Other lines, results leading:
row,melting point [°C],SMILES
1,178 to 180,CC(=O)Nc1cc2c(cc1[N+](=O)[O-])OC(C)(C)[C@@H](O)[C@@H]2NC(=O)CCCCl (relative stereo)
2,119 to 120,Cc1cc(O)c(S(=O)(=O)C(C)(C)C)c(=O)o1
3,61 to 63,CC(C(=O)NCC(COC(=O)C(C)(C)C)Cc1ccc(C(C)(C)C)cc1)c1ccc(NS(C)(=O)=O)c(Cl)c1 (configuration not stated)
4,180 to 181,Cc1ccccc1CC(=NC#N)NC(NC(=O)Cc1ccc2c(c1)OCCO2)C(C)(C)C (configuration not stated)
5,162 to 164,CCOCc1nc2c(N)nc(C)cc2n1CCCCNS(C)(=O)=O
6,208 to 209,Cc1cc(C(=O)O)ncc1C(c1cc(F)ccc1F)S(=O)(=O)c1ccc(Cl)cc1 (configuration not stated)
7,39 to 40,CCOC(=O)CCc1c[nH]c(-c2cccs2)c1
8,168 to 170,O=[N+]([O-])c1oc2c(NS(=O)(=O)C(F)(F)F)cccc2c1-c1ccccc1
9,287,Cc1c(Nc2c(C#N)cnc3sc(C(=O)O)cc23)ccc2[nH]ccc12
10,116 to 118,CCCCc1ccc(Oc2ccc(C#CC(C)N(O)C(N)=O)o2)cc1 (configuration not stated)
11,176 to 181,CC(=O)Nc1ccc(S(=O)(=O)Nc2nc(=O)n(C3CC3)cc2C)cc1
12,223 to 225,CC(C)(O)Cn1c(CO)nc2c(N)nc3cc(CCC(=O)N4CCOCC4)ccc3c21
13,> 260,O=[N+]([O-])c1cccc(C2C3=C(CCCS3)NC3=C2SCCC3)c1
14,132 to 134,Cc1ccc(-c2cccc(/C=C/C(=O)Nc3ccc(CN4CCCC(O)C4)cc3)c2)cc1 (configuration not stated)
15,193 to 195,CC(C)(C)c1cc(C(=O)NCCc2ccc(N)cc2)cc(C(C)(C)C)c1O
16,67 to 69,COC(=O)C(CS)NC(=O)CNC(=O)CS (configuration not stated)
17,204,Cc1cccc(NC(=O)NCC(=O)N(CC(=O)OC(C)(C)C)c2ccccc2Oc2ccccc2)c1

# Reference: a melting point compilation (Tetko et al.; mined from patent text by program, amines drawn as free bases though some values may be those of a salt)
